According to patent US20140011755A1, “Cardiac Glycosides for Treating Autoimmune Disease” (Department of Veterans Affairs, priority 2010, published 2014):

Key:
regulatory T cells = assay: FACS of regulatory T cells in splenocytes of treated CIA mice; assay type: in vivo, DBA1/J mice; settings: 0.3 mg/kg treated CIA mice, 4 mice per group
Experimental: FIG. 25. […] (A) Representative data from mixed lymphocyte studies. […] B cells were washed, replated in complete RPMI supplemented with BAFF (1 ng/mL), anti-CD3 antibody (4 μg/mL) and were added to 5×10^5 naïve CD4^+ T cells purified by MACS. Cells were incubated for 72 hr prior to harvest. IL-6, IL-10, TGFβ and IL-17 cytokine levels were measured by ELISA (R&D Systems, Peprotech, and eBiosciences). Data represent the average absorbance (A450) of triplicates and error bars represent the SEM. […] Cells were fixed in 4% paraformaldehyde for 15 minutes, washed twice with PBS and blocked with FACS buffer. Cells were stained for regulatory T cells using anti-TCRβ, anti-CD4, anti-CD25 and anti-FoxP3 antibodies (Cell Signaling Technologies, R&D Systems, AbCam). FACS was performed on the FACS Aria (Becton-Dickenson). Data represent the average population in 500,000 cells from 4 mice per treatment group. Error bars represent the SEM.
It is known that B cells can regulate T cell differentiation and in many states of autoimmune disease, an imbalance of Th1, Th2, and Th17 T cell populations exist. […] We performed studies to determine the regulatory effector function of B cells pre-treated with cardiac glycoside on T cell differentiation. […]

[1] = system: IL-10 cytokine secretion from B cells; assay: IL-10 secretion (ELISA) by splenic B cells from treated MRL-Ipr mice; assay type: cell-based
Experimental: FIG. 19. […] MACS-purified B cells from vehicle or digitoxin-treated 23 week-old female MRL-Ipr mice were harvested from the spleen. 2×10^5 B cells were incubated either media, mifespristone (0.8 nM), Jak inhibitor I (15 nM), STAT3 inhibitor VI (500 μM) or dasatinib (1.1 nM) for 60 minutes, washed and incubated for 48 hr at 37° C. Cell supernatant was collected and ELISAs were used to quantify the amount of secreted IL-10 cytokine in each condition. Data represent the average of triplicate conditions and error bars represent the SEM. Statistical significance was performed using the student t-test.

SMILES: C[C@H]1O[C@@H](O[C@H]2[C@@H](O)C[C@H](O[C@H]3[C@@H](O)C[C@H](O[C@H]4CC[C@@]5(C)[C@H](CC[C@@H]6[C@@H]5CC[C@]5(C)[C@@H](C7=CC(=O)OC7)CC[C@]65O)C4)O[C@@H]3C)O[C@@H]2C)C[C@H](O)[C@@H]1O [Digitoxin, digitoxin]
- induction of regulatory T cells in vivo (regulatory T cells): induce regulatory T cells
- secreted IL-10 cytokine ([1]; 2×10^5 B cells from vehicle or digitoxin-treated 23 week-old mice, 48 hr, ELISA): induces IL-10 cytokine secretion
- mechanism dependence of IL-10 secretion (inhibitor pre-incubation) ([1]; mifespristone 0.8 nM, Jak inhibitor I 15 nM, STAT3 inhibitor VI 500 μM or dasatinib 1.1 nM for 60 minutes): dependent on steroid receptors, Jak activity, and STAT3 activity, but not BCR-ABL or Src-like Family Kinase activity
